Reference: patent publication US20090137546A1, “Anti-Hypercholesterolemic Compounds” (priority 2005, published 2009)

System: cholesterol absorption
Assay: Cholesterol Absorption Assay in Mice
Format: in vivo, C57BL/6 male mice
Details: highest dose tested (oral, 0.12-10 mg/kg range); [3H]-cholesterol counts in liver and plasma, 5 h after cholesterol dose
Method: Compounds of this invention were determined to inhibit cholesterol absorption employing the Cholesterol Absorption Assay in Mice, below. This assay involves comparing a test compound to ezetimibe with respect to their ability to inhibit cholesterol absorption in mice.
Cholesterol Absorption Assay in Mice: C57BL/6 male mice (n=6/group), aged 10-14 weeks, were dosed orally with 0.2 ml 0.25% methyl cellulose solution with or without test compound or ezetimibe (0.12-10 mg/kg). Thirty minutes later all of the mice were dosed orally with 0.2 ml […]™ containing 2 μCi [^3H]-cholesterol per mouse. Five hours later, the animals were euthanized, and liver and blood were collected. Cholesterol counts in liver and plasma were determined, and percent inhibition of cholesterol absorption was calculated.

O=C1[C@H](CC[C@H](O)c2ccc(F)cc2)[C@@H](c2ccc(O)cc2)N1c1ccc(F)cc1 [ezetimibe]
inhibition of cholesterol absorption: > 90%
